The target of one series is T1, luciferase (Photinus pyralis, UniProt P08659, K549A/L550V/N119G/N50D/S548I).
T1 construct: expressed in transfected cells; host or cells: human hepatic stellate LX-2 cells transfected with pGL4.17-COL1A1P; lysate used
The series can be described thus: Acute effect on luciferase activity (cell lysate, 2 h). The format is biochemical. Particulars: 80 μM, 2-h treatment. As for the experimental part: Then, their anti-COL1A1 potencies were verified by testing the half maximal inhibition concentration (IC50) values upon COL1A1 expression expression in LX-2 cells. […] Then, compounds 4i, 4n and 4p with the lower IC50 values were selected as the key compounds for further studies.
Cells were maintained on Dulbecco’s Modified Eagle’s medium (DMEM), laid on 96-well plate. DMEM medium was supplemented with 10% fetal bovine serum (FBS) at 37 °C humidified atmosphere with 5% CO2. Furthermore, serum-free culture was required until the cells were confluent at 90−95%. 24 h later the cells were treated with a tested compound (40 and 80 μM) for 24 h. The COL1A1 promotor activity was detected by the Bright-Glo luciferase assay system. Alternatively, to test the acute effects of compound on luciferase activity, 24 h later the cells were lysed and the lysate was treated with a tested compound (80 μM) for 2 h, then the luciferase was detected by the Bright-Glo luciferase assay system (Promega, Madison, WI, USA).

Series [1] can be described thus: LX-2 cell survival, sulforhodamine B (SRB) assay. Particulars: human, LX-2 cells. The format is cell-based. As for the experimental part:
LX-2 cell survival was measured by sulforhodamine B (SRB) assay. The cells were seeded in 96-well plates at the density of 2 × 10^4/well and cultured in DMEM/GlutaMAX I medium with 10% fetal bovine serum (FBS) with 5% CO2, 37 °C. The cells were treated by the aloperine derivates for 24 h, washed by PBS for three times. Then the cells were fixed with 10% (wt/vol) trichloroacetic acid for 1 h and stained with SRB for 0.5 h. Subsequently, the protein-bound dye was dissolved in 10 mM Tris base solution after removing excess SRB dye washing repeatedly with 1% (vol/vol) acetic acid, the optical density (OD) was determined at 510 nm with a microplate reader.

Series [2] in a line: HepG2 cell survival, MTT assay. The series is classed as cell-based. Particulars: human, HepG2 cells. As for the experimental part: HepG2 cell survival was measured by MTT assay. HepG2 cells, at density of 6x10^3 cells/well in 96-well culture plates, were incubated with the aloperine derivates at various concentrations until the cells at 50% confluence for 24 h. 20 µL of the MTT (5 mg/mL) solution was added to each plate and incubated with 5% CO2, 37 °C for 4 h. Subsequently, withdrawing the culture supernatant containing MTT, 150 µL DMSO was used for dissolving the formazan crystal. The absorbance was measured using a microplate reader at 570 nm.

The test system of a further series is COL1A1 protein. The series can be described thus: Western blot of COL1A1 protein in LX-2 cells. The format is cell-based. Particulars: Homo sapiens, 24 h, read-out: Inhibition rate of COL1A1 protein; for inhibition at 6 µM: with TGF-β1, 6 μM; for inhibition at 12 µM: with TGF-β1, 12 μM. As for the experimental part: Then the anti-COL1A1 effects of 4n and 4p on protein level were evaluated by western blot assay.
(§1) LX-2 cells were cultured as described above. Cells were washed with phosphate-buffered saline (PBS) and were resuspended by radioimmunoprecipitation assay (RIPA) lysis buffer for 30 min in 4 °C; the supernatant was collected after centrifugation at 12000 g for 15 min at 4 °C. Subsequently, equal amounts of protein were quantified with Bradford assay, separated using SDS-PAGE and transferred onto polyvinylidene difluoride membrane. The membranes were blocked with 5% milk in PBST for 1 h, and probed with specific primary antibodies overnight at room temperature. The membrane was washed three times by PBST, and probed with horseradish peroxidase-conjugated secondary antibodies and GAPDH. The proteins were visualized by chemiluminescence reagents. Antibodies used in western blot analysis were obtained from Abcam (Cambridge, UK): anti-collagen 1 (ab34710), anti-TGF beta 1 antibody (ab179695), anti-alpha smooth muscle actin (ab32575) and Cell Signaling Technology (Danvers, MA, USA): GAPDH (D16H11) Rabbit mAb (5174).

In another series the test system is TGF-β1 protein. The series is described as follows: Western blot of TGF-β1 protein in LX-2 cells. The format is cell-based, human. Particulars: 24 h. As for the experimental part: At the meantime, the addition of TGF-β1 also stimulated the expression of TGF-β1 on protein level, as shown in Figure 3A–C and Supplementary Table S2.
as §1

For the next series, the system named is α-SMA protein. The series is described as follows: Western blot of α-SMA protein in LX-2 cells. The format is cell-based, human. Particulars: with TGF-β1, 6 and 12 μM, 24 h. The procedure:
Stellate cell activation is a key process for liver fibrogenesis, and α-SMA expression, induced by a stimulation of TGF-β1 or other factors, is considered a reliable marker of hepatic stellate cell activation and a key biomarker for liver fibrosis. Therefore, the expression of α-SMA was also investigated. As presented in Figure 3A–C and Supplementary Table S2, in our experiments, the addition of TGF-β1 stimulated the expression of α-SMA on protein level as expected.
as §1, with “Antibodies used in western blot analysis were obtained from Abcam (Cambridge, UK): anti-collagen 1 (ab34710), anti-TGF beta 1 antibody (ab179695), anti-alpha smooth muscle actin (ab32575) and Cell Signaling Technology (Danvers, MA, USA): GAPDH (D16H11) Rabbit mAb (5174).” left out

Another series in a line: in vivo. Particulars: both sexes, Kunming, mouse, po. As for the experimental part:
(§2) To evaluate the safety profiles of the key compounds 4i, 4n and 4p, an acute toxicity test was performed in Kunming mice. Compound 4i was given orally in a single-dosing experiment at 100, 300 and 400 mg kg^−1, while 4n at 300, 400, 500 mg kg^−1, and 4p at 200, 400, 500 mg kg^−1. The mice were closely monitored for 7 days.
(§3) Male and Female Kunming mice with weight of 20.0 ±1.0 g were obtained from the Institute of Laboratory Animal Science (Beijing, China). Animals wer e cared according to the institutional guidelines of the Institute of Medicinal Biotechnology, CAMS&PUMC (IMB-20190610D3), and fed with regular rodent chow and housed in an air conditioned room. The mice were randomly divided into different groups with four male mice and four female mice each. Each compound was given orally in a single-dosing experiment, the dose of 4i was 100, 300 and 400 mg kg^−1, the dose of 4n was 300, 400, 500 mg kg^−1, the dose of 4p was 200, 400, 500 mg kg^−1 (ddH2O as control). The mice were closely monitored for 7 days. Body weight as well as survival was monitored.

The subject of the next series is Kunming mice. The series can be described thus: in vivo. Particulars: both, mouse, po, 7 days. As for the experimental part: as §2, §3

Each structure is given as a SMILES string.

T1 sequence (P08659 whole entry N50D/N119G/S548I/K549A/L550V): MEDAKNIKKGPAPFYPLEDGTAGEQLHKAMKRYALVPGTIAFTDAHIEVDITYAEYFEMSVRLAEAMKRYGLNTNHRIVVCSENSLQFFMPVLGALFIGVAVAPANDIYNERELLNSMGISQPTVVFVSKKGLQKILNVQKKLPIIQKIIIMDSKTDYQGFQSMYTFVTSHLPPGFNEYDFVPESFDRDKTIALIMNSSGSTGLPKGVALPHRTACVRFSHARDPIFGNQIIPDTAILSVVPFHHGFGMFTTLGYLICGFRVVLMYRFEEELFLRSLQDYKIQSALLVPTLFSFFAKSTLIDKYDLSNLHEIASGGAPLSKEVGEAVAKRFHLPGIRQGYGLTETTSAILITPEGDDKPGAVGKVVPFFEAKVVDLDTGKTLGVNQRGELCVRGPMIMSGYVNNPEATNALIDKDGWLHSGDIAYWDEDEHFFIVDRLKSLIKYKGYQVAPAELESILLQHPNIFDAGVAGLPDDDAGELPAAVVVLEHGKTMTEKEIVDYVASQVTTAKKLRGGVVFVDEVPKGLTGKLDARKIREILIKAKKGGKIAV

As for `O=C(CN1CCCC2=C[C@H]3C[C@H](CN4CCCC[C@H]34)[C@@H]21)N(c1ccccc1)c1ccc2ccccc2c1` [4n, 12N-(N’-(Naphthalen-2-yl)-N’-phenyl)carbamoylmethyl aloperine], at luciferase, the “Acute effect on luciferase activity” value is recorded as “minimal inhibition”. The CC50 at 24 h in series [1] was found to be 17.1 ± 5.4 µM; in series [2], 35.2 ± 4.1 µM. For the same compound, in the series on COL1A1 protein, the inhibition at 6 µM was found to be 31.8%. Also, the inhibition at 12 µM in the series with COL1A1 protein was 76.5%. In addition, the “Inhibition rate of TGF-β1 protein expression” value was 14.6% in the series on TGF-β1 protein (with TGF-β1, 6 μM) and 61.0% in the series on TGF-β1 protein (with TGF-β1, 12 μM). Moreover, the “Inhibition of α-SMA expression on protein level” value with α-SMA protein is listed as “dose-dependent inhibition”. The same compound had an LD50 at 7 days in “in vivo” of 500 mg/kg. For the same compound, the “median lethal dose (LD50)” value in the series with Kunming mice came to 500 mg/kg.
In the case of `O=C(CN1CCCC2=C[C@H]3C[C@H](CN4CCCC[C@H]34)[C@@H]21)N1c2ccccc2Oc2ccccc21` [4p, 12N-N′-Phenoxazinylcarbamoylmethyl aloperine], the “Acute effect on luciferase activity” value on luciferase is “minimal inhibition”. The CC50 at 24 h in series [1] worked out at 34.8 ± 2.9 µM; in series [2], 43.7 ± 2.7 µM. The inhibition at 6 µM in the series with COL1A1 protein was 22.7%. Besides, the inhibition at 12 µM in the series on COL1A1 protein was 79.2%. The “Inhibition rate of TGF-β1 protein expression” value with TGF-β1 protein (with TGF-β1, 6 μM) turned out to be 20.8%; in the series on TGF-β1 protein (with TGF-β1, 12 μM) it was 135.4%. In the series on α-SMA protein, the “Inhibition of α-SMA expression on protein level” value is given as “dose-dependent inhibition”. Besides, in “in vivo”, the LD50 at 7 days was 400 mg/kg. For the same compound, the “median lethal dose (LD50)” value in the series with Kunming mice came out at 400 mg/kg.

(Values after paper PMC7663597, “Structure–Activity Relationship of Aloperine Derivatives as New Anti–Liver Fibrogenic Agents” (Molecules, 2020).)
